Assay results from patent US5384260A, “Detection of onset of antiestrogen resistance in breast cancer” (Board of Regents, The University of Texas System, priority 1993, dated 1995).
Where “and” joins values, the source holds several entries; their conditions need not be identical. Equal entries are not always repeated. Entries after “also recorded” stand apart in the source; their conditions may differ.

Tests used:
MCF-7 tumors [1] = assay: HPLC quantification of tamoxifen and cis/trans-4-hydroxytamoxifen ratio in MCF-7 tumors from tamoxifen-treated mice (total tumor, nuclear pellet, KCl nuclear extract); format: in vivo; conditions: for Mean 4-OH-TAM cis/trans ratio: p < 0.0005
Method: In order to examine the relationship between tamoxifen metabolites and tamoxifen resistance, athymic Balb/c nude mice were implanted with human breast cancer tumor cells (MCF-7). Mice were treated daily for 4-6 months with subcutaneous tamoxifen. After tamoxifen resistance developed and tumor progression was observed, mice were sacrificed, and tumors were collected. In addition, tamoxifen-sensitive tumors were collected from mice still responding to tamoxifen therapy.
Quantification of tamoxifen and its metabolites in tumor specimens was performed using photactivation and high performance liquid chromatography (HPLC) analysis. To summarize: Each tumor sample was weighed, spiked with an internal standard, and homogenized. Tissue samples were then extracted with 2% n-butanol in hexane and irradiated with high intensity ultraviolet light (254 nm). […] All solvents were of HPLC grade. Fluorescence of all compounds was measured at a wavelength of 266 nm. […] In some samples, the tumor was first homogenized and then the nuclear pellet obtained by centrifugation. HPLC tamoxifen measurements were made on extracts of the entire tumor specimen or on subcellular fractions including the cytosol or-the total nuclear pellet. In some cases, the nuclear pellet was further extracted in 0.4M KCl to extract primary metabolites bound to estrogen receptor.
The material extracted with KCl includes that bound to estrogen receptor.

human tumor specimens = assay: HPLC of tamoxifen and 4-OH-TAM isomers in tumors of tamoxifen-treated patients (Example 2); format: in vivo; conditions: for cis versus trans 4-OH-TAM in tumor nuclear pellets: patients with clinically-evident tumor resistance, FIG. 8
Method: Quantification of tamoxifen and its metabolites in tumor specimens was performed using photactivation and high performance liquid chromatography (HPLC) analysis. To summarize: Each tumor sample was weighed, spiked with an internal standard, and homogenized. Tissue samples were then extracted with 2% n-butanol in hexane and irradiated with high intensity ultraviolet light (254 nm). Samples were analyzed by HPLC using a C-18 reverse phase column and eluted isocratically with a mobile phase of water (7%) and triethylamine (0.25%) in methanol. All solvents were of HPLC grade. Fluorescence of all compounds was measured at a wavelength of 266 nm. […] In some samples, the tumor was first homogenized and then the nuclear pellet obtained by centrifugation. HPLC tamoxifen measurements were made on extracts of the entire tumor specimen or on subcellular fractions including the cytosol or-the total nuclear pellet. In some cases, the nuclear pellet was further extracted in 0.4M KCl to extract primary metabolites bound to estrogen receptor.
1) identification and measurement of tamoxifen and its metabolites in tumors isolated from tamoxifen-treated patients who are known treatment failures;
There are two tamoxifen-sensitive tumors (L281 and G375) for comparison because patients responding to treatment are not usually biopsied during the responsive phase of their disease.

[2] = HPLC of tamoxifen and metabolites in MCF-7 mouse tumors (Example 3); conditions: mouse, mcf-7 tumor, 500 ug/day
From the text: (§1) Human breast tumors from various patients who failed tamoxifen therapy (20 mgs/day>one year) were obtained from the Breast Cancer Tumor Bank. A portion of the tumor was extracted, irradiated and analyzed by Mass Spectrometry (procedure described below). Tumor tissue was also obtained from an in vivo nude mouse model of acquired tamoxifen resistance. MCF-7 human breast tumors were harvested from nude mice after the development of tamoxifen resistance (4-6 months of tamoxifen administration, 500 ug/day). These tissues were frozen at -20° C. until analysis. Frozen tissue samples were weighed, homogenized, and extracted. Briefly, all samples were extracted with 6.0 ml of 2% butanol in hexane, vortexed for 1.0 min, and then centrifuged for 10 min at 1000×g. The organic phase was dried under N2 gas at 37° C. and reconstituted in 200 μl methanol prior to injection. The reconstituted samples were transferred to a Infrasil quartz cuvette (Fisher Scientific), irradiated for one minute with a 15 W Hg vapor lamp and injected onto a HPLC column.
(§2) The HPLC system consisted of a Beckman model 320 gradient liquid chromatograph, two model 110A pumps, and a model 420 controller. The HPLC was equipped with a reverse phase Altex C18 ultrasphere ODS column and a 100 μl injection loop. […] The flow rate of the mobil phase was set at 0.5 ml/min. The fluorescence of photochemically activated compounds was detected with an Applied Biosystems 980 fluorometer with excitation wavelength set at 266 nm. Retention times and peak heights were recorded with a Spectraphysics 4100 integrator.

MCF-7 tumors [3] = assay: as above; conditions: for Presence in MCF-7 tamoxifen resistant mouse tumor: HPLC, FIG. 13
From the text: as §1, §2

[4] = in vivo; cited from earlier work
T47D human breast cell = conditions: cited from earlier work
[5] = in vitro; cited from earlier work
human breast tumors = assay: HPLC and mass spectrometry of tamoxifen metabolites in human breast tumors failing tamoxifen (Example 3); format: in vivo; conditions: HPLC / EI-MS
From the text: as §1
The HPLC system consisted of a Beckman model 320 gradient liquid chromatograph, two model 110A pumps, and a model 420 controller. The HPLC was equipped with a reverse phase Altex C18 ultrasphere ODS column and a 100 μl injection loop. The mobil phase consisted of 7% H2 O and […] triethylamine in methanol. The flow rate of the mobil phase was set at 0.5 ml/min. The fluorescence of photochemically activated compounds was detected with an Applied Biosystems 980 fluorometer with excitation wavelength set at 266 nm. Retention times and peak heights were recorded with a Spectraphysics 4100 integrator.
Non-irradiated samples were also injected onto the HPLC column and fractions were collected every minute. Fractionations corresponding to the retention times noted for the bisphenol and monophenol tamoxifen were further evaluated using mass-Spectrometry. The mass spectrometric behavior of the mono and bis phenols under electron impact ionization mass-spectrometry (EI-MS) was utilized. HPLC separated samples, in glass vials, were extracted with methanol, injected into glass capillaries and dried. Samples were introduced via a direct insertion probe. Spectra were recorded at 70 eV over the mass range of 70-500 at 10 seconds per decade with a resolution of 1000. The probe was heated in stages to 200° C.

[6] = cited from earlier work
[7] = resistant MCF-7 mouse tumors, N = 10 (N-DES 9, monophenol 8)
[8] = sensitive MCF-7 mouse tumors, N = 6 (bisphenol 5)

CCC(=C(c1ccc(O)cc1)c1ccc(OCCN(C)C)cc1)c1ccccc1 [4-OH-TAM, 4-hydroxytamoxifen]
Cis/trans 4-OH-TAM ratio, individual tumor (MCF-7 tumors [1]; resistant MCF-7 tumors (N = 16)): 0.86 and 0.812 and 0.442 and 0.929 and 1.019 and 0.777 and 1.073 and 0.49 and 0.724 and 0.868 and 0.59 and 0.73 and 1.16 and 0.76 and 0.932
cis 4-OH-TAM/trans-4-OH-TAM ratio in KCl-extracted nuclear pellets compared with other fractions (MCF-7 tumors [1]; resistant tumor, FIG. 7): larger in the nuclear pellets extracted with KCl
C/T-OH-TAM ratio (summary) (MCF-7 tumors [1]; resistant tumors): 0.8-0.9
Median cis/trans 4-OH-TAM ratio (MCF-7 tumors [1]; resistant tumors): 0.84
Number of tumors with cis/trans ratio > 0.60 (MCF-7 tumors [1]; resistant tumors): 13/16
Number of tumors with cis/trans ratio ≤ 0.60 (MCF-7 tumors [1]; resistant tumors): 3/16
Range of cis/trans 4-OH-TAM ratio (MCF-7 tumors [1]; resistant tumors): 0.442-1.16
Mean 4-OH-TAM cis/trans ratio (MCF-7 tumors [1]; resistant tumors, SD = 0.196): 0.8141
cis/trans 4-OH-TAM ratio, resistant compared with sensitive tumors (MCF-7 tumors [1]; resistant vs sensitive): higher cis/trans ratios; also recorded: increase; also recorded: lower in sensitive than in resistant tumors; also recorded: the cis/trans ratio is higher in the resistant tumor
Cis/trans 4-OH-TAM ratio, individual tumor (MCF-7 tumors [1]; sensitive MCF-7 tumors (N = 16)): 0.575 and 0.588 and 0.472 and 0.56 and 0.645 and 0.428 and 0.446 and 0.4632 and 0.476 and 0.506 and 0.34 and 0.486 and 0.38 and 1.0 and 0.77
C/T-OH-TAM ratio (summary) (MCF-7 tumors [1]; sensitive tumors): 0.4-0.5
Median cis/trans 4-OH-TAM ratio (MCF-7 tumors [1]; sensitive tumors): 0.48
Number of tumors with cis/trans ratio > 0.60 (MCF-7 tumors [1]; sensitive tumors): 3/16
Number of tumors with cis/trans ratio ≤ 0.60 (MCF-7 tumors [1]; sensitive tumors): 13/16
Range of cis/trans 4-OH-TAM ratio (MCF-7 tumors [1]; sensitive tumors): 0.34-1.0
Mean 4-OH-TAM cis/trans ratio (MCF-7 tumors [1]; sensitive tumors, SD = 0.168): 0.5297
cis versus trans 4-OH-TAM in tumor nuclear pellets (human tumor specimens): greater cis than trans levels
cis/trans ratios in total tumor extract (human tumor specimens; tamoxifen-resistant patients' tumors, majority): relatively high cis/trans ratios in the total tumor extract
cis/trans ratios (human tumor specimens; two tumors from tamoxifen-sensitive patients): low cis/trans ratios

CCC(=C(c1ccccc1)c1ccc(OCCNC)cc1)c1ccccc1 [N-desmethyltamoxifen]
concentration at 4380 h [2]: 135 ng/g
Tamoxifen and metabolite concentrations, individual animal (MCF-7 tumors [3]; resistant MCF-7 mouse tumors): 19.65 .eta.g/g tissue and 68.12 .eta.g/g tissue and 38.44 .eta.g/g tissue and 135.44 .eta.g/g tissue and 50.27 .eta.g/g tissue and 65.70 .eta.g/g tissue and 127.29 .eta.g/g tissue and 100.43 .eta.g/g tissue
Tamoxifen and metabolite concentrations, mean (X) (MCF-7 tumors [3]; [7]): 71.28 .eta.g/g tissue
Tamoxifen and metabolite concentrations, individual animal (MCF-7 tumors [3]; sensitive MCF-7 mouse tumors): 124.70 .eta.g/g tissue and 331.82 .eta.g/g tissue and 534.62 .eta.g/g tissue and 5.95 .eta.g/g tissue and 322.99 .eta.g/g tissue and 359.67 .eta.g/g tissue
Tamoxifen and metabolite concentrations, mean (X) (MCF-7 tumors [3]; [8]): 279.95 .eta.g/g tissue
Occurrence in human serum [4]: major metabolite found in human serum

CC/C(=C(\c1ccccc1)c1ccc(O)cc1)c1ccccc1 [Trans-metabolite E]
Estrogen agonist activity of metabolite E isomers (T47D human breast cell): weak partial agonist
Isomerization to cis metabolite E [5]: demonstrated in vitro

CCC(=C(c1ccc(O)cc1)c1ccc(O)cc1)c1ccccc1 [bisphenol]
Presence in human breast cancer tissue (human breast tumors): the presence of bisphenol could not be confirmed
Presence in human breast cancer tissue (human breast tumors; listed as bisphenoltamoxifen): also present in these patients
Presence in MCF-7 tamoxifen resistant mouse tumor (MCF-7 tumors [3]): A very small peak was evident at a retention time similar to bisphenol
Tamoxifen and metabolite concentrations, individual animal (MCF-7 tumors [3]; resistant MCF-7 mouse tumors): 15.12 .eta.g/g tissue and 18.34 .eta.g/g tissue and 4.26 .eta.g/g tissue and 3.93 .eta.g/g tissue and 32.75 .eta.g/g tissue and 9.77 .eta.g/g tissue and 43.87 .eta.g/g tissue and 52.72 .eta.g/g tissue and 23.38 .eta.g/g tissue
Tamoxifen and metabolite concentrations, mean (X) (MCF-7 tumors [3]; [7]): 21.33 .eta.g/g tissue
Tamoxifen and metabolite concentrations, individual animal (MCF-7 tumors [3]; sensitive MCF-7 mouse tumors): 44.27 .eta.g/g tissue and 33.90 .eta.g/g tissue and 39.80 .eta.g/g tissue and 1491.44 .eta.g/g tissue and 352.76 .eta.g/g tissue
Tamoxifen and metabolite concentrations, mean (X) (MCF-7 tumors [3]; [8]): 392.43 .eta.g/g tissue

CC/C(=C(/c1ccc(O)cc1)c1ccc(OCCN(C)C)cc1)c1ccccc1 [cis 4-hydroxytamoxifen]
cis versus trans 4-OH-TAM in tumor nuclear pellets (human tumor specimens): higher cis 4-OH-TAM in the nuclear pellets

CC/C(=C(/c1ccccc1)c1ccc(O)cc1)c1ccccc1 [cis-metabolite E]
Estrogen agonist activity of metabolite E isomers (T47D human breast cell): potent estrogen agonist
Stimulation of T47D human breast cell growth (T47D human breast cell): more potent than bisphenol

CCC(=C(c1ccc(O)cc1)c1ccc(OCCNC)cc1)c1ccccc1 [metabolite Bx]
Presence in human breast cancer tissue (human breast tumors): Peaks were also noted
Presence in MCF-7 tamoxifen resistant mouse tumor (MCF-7 tumors [3]): noted on the chromatogram

CCC(=C(c1ccccc1)c1ccc(OCCN)cc1)c1ccccc1 [metabolite Z, didesmethyltamoxifen]
Presence in human breast cancer tissue (human breast tumors): Peaks were also noted

CCC(=C(c1ccccc1)c1ccc(O)cc1)c1ccccc1 [monophenol]
Presence in human breast cancer tissue (human breast tumors): confirmed the presence of monophenol
Presence in human breast cancer tissue (human breast tumors; listed as monophenoltamoxifen): present in tumors isolated from patients who failed tamoxifen therapy
concentration at 4380 h [2]: 22 ng/g
Tamoxifen and metabolite concentrations, individual animal (MCF-7 tumors [3]; resistant MCF-7 mouse tumors): 24.30 .eta.g/g tissue and 9.63 .eta.g/g tissue and 21.99 .eta.g/g tissue and 20.66 .eta.g/g tissue and 232.66 .eta.g/g tissue and 47.82 .eta.g/g tissue and 27.13 .eta.g/g tissue
Tamoxifen and metabolite concentrations, mean (X) (MCF-7 tumors [3]; [7]): 49.35 .eta.g/g tissue
Tamoxifen and metabolite concentrations, individual animal (MCF-7 tumors [3]; sensitive MCF-7 mouse tumors): 7.69 .eta.g/g tissue and 109.07 .eta.g/g tissue and 160.99 .eta.g/g tissue and 37.72 .eta.g/g tissue and 265.25 .eta.g/g tissue and 137.93 .eta.g/g tissue
Tamoxifen and metabolite concentrations, mean (X) (MCF-7 tumors [3]; [8]): 119.78 .eta.g/g tissue
Presence in dog bile ([6]; dog, in vivo): isolated from the bile of dogs
Share of radiolabeled compounds present in bile ([6]; dogs): approximately 6%

CC/C(=C(\c1ccc(O)cc1)c1ccc(OCCN(C)C)cc1)c1ccccc1 [trans 4-hydroxytamoxifen]
40H trans peak height (human tumor specimens; pellet (KCl nuclear extract), nd = not detectable, listed as 40H trans): 1024 and 1194
